Source: patent US20050282755A1, “Compositions having antimicrobial activity and uses thereof” (priority 2004, published 2005)
Values after ≈ are worked out from the molar mass of the structure shown. Starred links: 1 amine or outer side, 2 acyl side, 3 side chain; linkers in the order of their positions; H or OH if unused. Non-standard residues stand in square brackets, D forms with d. Residues, ends and D or L forms follow the SMILES beside them. *: point of attachment. Ethylenediamine = C(CN[*:2])N[*:1]; Lauroyl = CCCCCCCCCCCC(=O)*; Decanoyl = CCCCCCCCCC(=O)*

Legend:
Assay type in all cases: cell-based
[1] = system: Pseudomonas aeruginosa ATCC 27853; experiment: MIC, NCCLS M7-A6 broth microdilution (Table 9, no superscript); conditions: ATCC 27853
Method in brief: (§1)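 MIC, read as the lowest peptide concentration without visible growth compared with peptide-free wells, after overnight incubation at 37° C. Wells held cation-adjusted Mueller Hinton broth and a final inoculum of 5×10^5 to 1×10^6 CFU/mL from log-phase culture.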

[2] = system: Staphylococcus epidermidis ATCC 12228; experiment: as above; conditions: ATCC 12228
Method in brief: as §1

[3] = system: Salmonella dublin (Lane); experiment: as above
Method in brief: as §1

[4] = system: Escherichia coli ATCC 25922; experiment: as above; conditions: ATCC 25922
Method in brief: as §1

[5] = system: Propionibacterium acnes ATCC 6919; experiment: MIC, agar dilution method NCCLS M11-A6, Brucella agar, anaerobic (Table 9, superscript c); conditions: ATCC 6919
Method in brief: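 Agar dilution per NCCLS M11-A6 on Brucella agar; final inoculum 1.5×10^8 CFU/milliliter applied to plates, incubated 48-96 hours at 37° C. under anaerobic (GasPak) conditions. MIC = lowest peptide concentration with no colony growth.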

[6] = system: Candida albicans ATCC 18804; experiment: MIC in yeasts, NCCLS M27-A2 broth microdilution, RPMI 1640 (Table 9, letter e); conditions: ATCC 18804
Method in brief: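 Broth microdilution per NCCLS M27-A2 in RPMI 1640 with glutamine and phenol red, final inoculum 0.5×10^3–2.5×10^3 CFU/milliliter. Incubated 24 to 48 hours at 37° C; MIC is the lowest peptide concentration with no visible growth.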

[7] = system: Staphylococcus aureus ATCC 29213; experiment: MIC, NCCLS M7-A6 broth microdilution, cation-adjusted Mueller Hinton broth (Table 9, no superscript); conditions: ATCC 29213
Method in brief: as §1

MIC P. aeruginosa [1] [µg/mL]	MIC S. epidermidis [2] [µg/mL]	MIC S. dublin [3] [µg/mL]	MIC E. coli [4] [µg/mL]	MIC P. acnes [5] [c ug/mL]	MIC C. albicans [6] [e ug/mL]	MIC S. aureus [7] [µg/mL]	Structure (SMILES)
>64	32 (≈ 15.7 µM)	64 (≈ 31.5 µM)	64 (≈ 31.5 µM)	>64	64	16 (≈ 7.86 µM)	CCCCCCCCCCCC(=O)N[C@H](CCCNC(=N)N)C(=O)N[C@H](CO)C(=O)N[C@H](CCCNC(=N)N)C(=O)N[C@H](Cc1c[nH]c2ccccc12)C(=O)N[C@H](CCCNC(=N)N)C(=O)N[C@H](CC(=O)O)C(=O)N[C@@H](C(=O)N[C@H](C)C(=O)N[C@H](CCCNC(=N)N)C(=O)N[C@H](CC(N)=O)C(=O)N[C@H](Cc1ccccc1)C(=O)N[C@H](CCSC)C(=O)N[C@H](CCCNC(=N)N)C(=O)N[C@H](CS)C(N)=O)C(C)C [Peptide 247, Lauryl-rsrwrdvarnfmrc-NH2] (Lauroyl-[dR][dS][dR][dW][dR][dD][dV][dA][dR][dN][dF][dM][dR][dC]-NH2)
32 (≈ 16.2 µM)	1 (≈ 0.507 µM)	2 (≈ 1.01 µM)	4 (≈ 2.03 µM)	2	1	4 (≈ 2.03 µM)	CCCCCCCCCCCC(=O)N[C@@H](CCCNC(=N)N)C(=O)N[C@@H](CO)C(=O)N[C@@H](CCCNC(=N)N)C(=O)N[C@@H](Cc1c[nH]c2ccccc12)C(=O)N[C@@H](CCCNC(=N)N)C(=O)N[C@@H](CC(=O)O)C(=O)N[C@H](C(=O)N[C@@H](CC(C)C)C(=O)N[C@@H](CCCNC(=N)N)C(=O)N[C@@H](CC(N)=O)C(=O)N[C@@H](Cc1ccccc1)C(=O)N[C@@H](CCSC)C(=O)N[C@@H](CCCNC(=N)N)C(N)=O)C(C)C [Peptide 134, Lauryl-RSRWRDVLRNFMR-NH2] (Lauroyl-RSRWRDVLRNFMR-NH2)
8 (≈ 4.14 µM)	2 (≈ 1.04 µM)	4 (≈ 2.07 µM)	4 (≈ 2.07 µM)	8	8	2 (≈ 1.04 µM)	CCCCCCCCCCCC(=O)N[C@H](CCCNC(=N)N)C(=O)N[C@H](CO)C(=O)N[C@H](CCCNC(=N)N)C(=O)N[C@H](Cc1c[nH]c2ccccc12)C(=O)N[C@H](CCCNC(=N)N)C(=O)N[C@H](CC(=O)O)C(=O)N[C@@H](C(=O)N[C@H](C)C(=O)N[C@H](CCCNC(=N)N)C(=O)N[C@H](CC(=O)O)C(=O)N[C@H](Cc1ccccc1)C(=O)N[C@H](CCSC)C(=O)N[C@H](CCCNC(=N)N)C(N)=O)C(C)C [Peptide 249, Lauryl-rsrwrdvardfmr-NH2] (Lauroyl-[dR][dS][dR][dW][dR][dD][dV][dA][dR][dD][dF][dM][dR]-NH2)

The next lines start with the compound.

Structure (SMILES)	MIC P. aeruginosa [1] [µg/mL]	MIC S. epidermidis [2] [µg/mL]	MIC S. dublin [3] [µg/mL]	MIC E. coli [4] [µg/mL]	MIC P. acnes [5] [c ug/mL]	MIC C. albicans [6] [e ug/mL]	MIC S. aureus [7] [µg/mL]
CCCCCCCCCCCC(=O)N[C@@H](CCCNC(=N)N)C(=O)N[C@@H](CO)C(=O)N[C@@H](CCCNC(=N)N)C(=O)N[C@@H](Cc1c[nH]c2ccccc12)C(=O)N[C@@H](CCCNC(=N)N)C(=O)N[C@@H](CC(=O)O)C(=O)N[C@H](C(=O)N[C@@H](C)C(=O)N[C@@H](CCCNC(=N)N)C(=O)N[C@@H](CC(N)=O)C(=O)N[C@@H](Cc1c[nH]c2ccccc12)C(=O)N[C@@H](CCSC)C(=O)N[C@@H](CCCNC(=N)N)C(N)=O)C(C)C [Peptide 139, Lauryl-RSRWRDVARNWMR-NH2] (Lauroyl-RSRWRDVARNWMR-NH2)	8 (≈ 4.06 µM)	2 (≈ 1.02 µM)	8 (≈ 4.06 µM)	8 (≈ 4.06 µM)	16	8	4 (≈ 2.03 µM)
CCCCCCCCCC(=O)NCCNC(=O)[C@H](CCCNC(=N)N)NC(=O)[C@H](CCSC)NC(=O)[C@H](Cc1ccccc1)NC(=O)[C@H](CC(N)=O)NC(=O)[C@H](CCCNC(=N)N)NC(=O)[C@H](C)NC(=O)[C@@H](NC(=O)[C@H](CC(=O)O)NC(=O)[C@H](CCCNC(=N)N)NC(=O)[C@H](Cc1c[nH]c2ccccc12)NC(=O)[C@H](CCCNC(=N)N)NC(=O)[C@H](CO)NC(=O)[C@@H](N)CCCNC(=N)N)C(C)C [Peptide 175, H2N-RSRWRDVARNFMR-Ethylamidodecanyl] (H-RSRWRDVARNFMR-{Ethylenediamine-Decanoyl}; C-terminus assumed)	2 (≈ 1.03 µM)	1 (≈ 0.514 µM)	4 (≈ 2.06 µM)	4 (≈ 2.06 µM)	32	8	4 (≈ 2.06 µM)
CCCCCCCCCCCC(=O)N[C@@H](CCCNC(=N)N)C(=O)N[C@@H](CO)C(=O)N[C@@H](CCCNC(=N)N)C(=O)N[C@@H](Cc1c[nH]c2ccccc12)C(=O)N[C@@H](CCCNC(=N)N)C(=O)N[C@@H](CC(=O)O)C(=O)N[C@H](C(=O)N[C@@H](C)C(=O)N[C@@H](CCCNC(=N)N)C(N)=O)C(C)C [Peptide 101, Lauryl-RSRWRDVAR-NH2] (Lauroyl-RSRWRDVAR-NH2)	32 (≈ 23.1 µM)	2 (≈ 1.45 µM)	>64	32 (≈ 23.1 µM)	>64	>64	4 (≈ 2.89 µM)
CCCCCCCCCCCC(=O)N[C@H](CCCNC(=N)N)C(=O)N[C@H](CO)C(=O)N[C@H](C)C(=O)N[C@H](Cc1c[nH]c2ccccc12)C(=O)N[C@H](CCCNC(=N)N)C(=O)N[C@H](CC(=O)O)C(=O)N[C@@H](C(=O)N[C@H](C)C(=O)N[C@H](CCCNC(=N)N)C(=O)N[C@H](CC(N)=O)C(=O)N[C@H](Cc1ccccc1)C(=O)N[C@H](CCSC)C(=O)N[C@H](CCCNC(=N)N)C(N)=O)C(C)C [Peptide 238, Lauryl-rsawrdvarnfmr-NH2] (Lauroyl-[dR][dS][dA][dW][dR][dD][dV][dA][dR][dN][dF][dM][dR]-NH2)	64 (≈ 34.7 µM)	8 (≈ 4.33 µM)	8 (≈ 4.33 µM)	8 (≈ 4.33 µM)	32	16	8 (≈ 4.33 µM)
CCCCCCCCCCCC(=O)N[C@H](CCCNC(=N)N)C(=O)N[C@H](CO)C(=O)N[C@H](CCCNC(=N)N)C(=O)N[C@H](CC(C)C)C(=O)N[C@H](CCCNC(=N)N)C(=O)N[C@H](CC(=O)O)C(=O)N[C@H](CC(C)C)C(=O)N[C@H](CC(C)C)C(=O)N[C@H](CCCNC(=N)N)C(=O)N[C@H](CC(N)=O)C(=O)N[C@H](CC(C)C)C(=O)N[C@H](C)C(=O)N[C@H](CCCNC(=N)N)C(N)=O [Peptide 132, Lauryl-rsrlrdllrnlar-NH2] (Lauroyl-[dR][dS][dR][dL][dR][dD][dL][dL][dR][dN][dL][dA][dR]-NH2)	32 (≈ 17.6 µM)	2 (≈ 1.1 µM)	4 (≈ 2.2 µM)	4 (≈ 2.2 µM)	8	4	4 (≈ 2.2 µM)
CCCCCCCCCCCC(=O)N[C@@H](CCCNC(=N)N)C(=O)N[C@@H](CO)C(=O)N[C@@H](CCCNC(=N)N)C(=O)N[C@@H](Cc1c[nH]c2ccccc12)C(=O)N[C@@H](CCCNC(=N)N)C(=O)N[C@@H](CC(=O)O)C(=O)N[C@H](C(=O)N[C@@H](C)C(=O)N[C@@H](CCCNC(=N)N)C(=O)N[C@@H](CC(N)=O)C(N)=O)C(C)C [Peptide 100, Lauryl-RSRWRDVARN-NH2] (Lauroyl-RSRWRDVARN-NH2)	>64	16 (≈ 10.7 µM)	>64	>64	>64	32	8 (≈ 5.34 µM)
CCCCCCCCCCCC(=O)N[C@@H](C(=O)N[C@H](CCCNC(=N)N)C(=O)N[C@@H](C(=O)N[C@H](C)C(=O)N[C@H](CCCNC(=N)N)C(=O)N[C@@H](C(=O)NCC(=O)N[C@H](CCCNC(=N)N)C(=O)N[C@H](CO)C(=O)N[C@H](CCCNC(=N)N)C(=O)N[C@H](Cc1c[nH]c2ccccc12)C(=O)N[C@H](CCCNC(=N)N)C(=O)N[C@H](CC(=O)O)C(=O)N[C@@H](C(=O)N[C@H](C)C(=O)N[C@H](CCCNC(=N)N)C(=O)N[C@H](CC(N)=O)C(=O)N[C@H](Cc1ccccc1)C(=O)N[C@H](CCSC)C(=O)N[C@H](CCCNC(=N)N)C(N)=O)C(C)C)[C@H](C)O)C(C)C)[C@H](C)O [Peptide 78, Lauryl-trvartgrsrwrdvarnfmr-NH2] (Lauroyl-[dT][dR][dV][dA][dR][dT]G[dR][dS][dR][dW][dR][dD][dV][dA][dR][dN][dF][dM][dR]-NH2)	8 (≈ 2.99 µM)	1 (≈ 0.374 µM)	8 (≈ 2.99 µM)	8 (≈ 2.99 µM)	32	8	8 (≈ 2.99 µM)
